# Results taken from patent publication US20190134000A1, “COMPOUNDS TO PROMOTE NORMAL PROCESSING OF APP” (Buck Institute for Research on Aging, priority 2016, published 2019).
# “Also recorded” adds a separate entry of the source. Like-named read-outs stand apart in the source and are kept apart here.
# Assays:
# [1] = test system: sAPPα in SH-SY5Y cells; assay: Primary screen, effect on sAPPα in SH-SY5Y cells (AlphaLISA); assay type: cell-based, human
# Description: (§1) Compound C41 was initially identified by screening a library of compounds in a series of steps. First compounds were screened in a primary screen to determine the effect on sAPPα in SH-SYSY cells (see, e.g., FIG. 4). Compounds that elicited an increase in sAPPα of at least 10% were subjected to a secondary screen in CHO-7W cells for their effect on sAPPα and Aβ (see, e.g., FIG. 5).
# [2] = target: α7 (Homo sapiens, UniProt P36544); assay: Target binding α7
# [3] = target: T1, 5-HT3 (Homo sapiens, UniProt P46098); assay: Target binding 5-HT3; details: target binding
# T1 sequence (P46098 24-478): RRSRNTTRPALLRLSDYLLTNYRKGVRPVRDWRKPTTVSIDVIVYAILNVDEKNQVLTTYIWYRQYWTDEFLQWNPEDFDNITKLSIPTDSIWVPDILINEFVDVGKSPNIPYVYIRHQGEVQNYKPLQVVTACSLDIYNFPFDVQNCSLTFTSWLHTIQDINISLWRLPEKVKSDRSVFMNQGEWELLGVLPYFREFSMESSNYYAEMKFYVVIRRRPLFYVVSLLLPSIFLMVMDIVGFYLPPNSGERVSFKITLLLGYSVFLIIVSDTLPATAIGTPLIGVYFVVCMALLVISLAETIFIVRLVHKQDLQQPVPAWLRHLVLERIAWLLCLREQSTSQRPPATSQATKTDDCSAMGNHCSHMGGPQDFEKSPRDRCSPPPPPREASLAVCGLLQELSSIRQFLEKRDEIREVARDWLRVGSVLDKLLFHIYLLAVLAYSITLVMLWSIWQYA
# [4] = target: APP (Homo sapiens, UniProt P05067); assay: Target binding APP
# [5] = test system: sAPPα, Aβ1-42 in CHO-7W cells; assay: Secondary screen, sAPPα and Aβ in CHO-7W cells; assay type: cell-based
# Description: as §1
# [6] = test system: AD model mouse; assay: In vivo study of C41 and F03 in an AD model mouse
# Description: Panel A: Novel object preference; Panel B: Novel location preference; Panel C: sAPPα.
# Panel A: sAPPβ; Panel B: the sAPPα/sAPPβ ratio.
# Compounds meeting the initial screening criteria were then subjected to in vivo testing.
# [7] = in vitro
# Protocol: The second batch of C41 was tested for plasma protein binding, ADME-tox screening (microsomal intrinsic clearance), and ADME-tox screening (CYP inhibition screen). PK in rats was determined to determine a dose of non-GLP Pharm-Tox screening. Additionally, acute toxicity in rats (pre-subchronic toxicity) and non-GLP subchronic toxicity was determined.
# [8] = target: CYP3A4 (Homo sapiens, UniProt P08684); assay: CYP inhibition screen CYP3A4; assay type: in vitro ADME; details: human
# [9] = target: CYP2C9 (Homo sapiens, UniProt P11712); assay: CYP inhibition screen CYP2C9; assay type: in vitro ADME; details: human, read-out: CYP2C9 inhibition
# [10] = target: CYP2D6 (Homo sapiens, UniProt P10635); assay: CYP inhibition screen CYP2D6; assay type: in vitro ADME; details: human, read-out: CYP2D6 inhibition
# [11] = target: CYP2C19 (Homo sapiens, UniProt P33261); assay: CYP inhibition screen CYP2C19; assay type: in vitro ADME; details: human, read-out: CYP2C19 inhibition
# [12] = target: T2, CYP1A2 (Homo sapiens, UniProt P05177); assay: CYP inhibition screen CYP1A2; assay type: in vitro ADME; details: human, read-out: CYP1A2 inhibition
# T2 sequence (P05177 1-516): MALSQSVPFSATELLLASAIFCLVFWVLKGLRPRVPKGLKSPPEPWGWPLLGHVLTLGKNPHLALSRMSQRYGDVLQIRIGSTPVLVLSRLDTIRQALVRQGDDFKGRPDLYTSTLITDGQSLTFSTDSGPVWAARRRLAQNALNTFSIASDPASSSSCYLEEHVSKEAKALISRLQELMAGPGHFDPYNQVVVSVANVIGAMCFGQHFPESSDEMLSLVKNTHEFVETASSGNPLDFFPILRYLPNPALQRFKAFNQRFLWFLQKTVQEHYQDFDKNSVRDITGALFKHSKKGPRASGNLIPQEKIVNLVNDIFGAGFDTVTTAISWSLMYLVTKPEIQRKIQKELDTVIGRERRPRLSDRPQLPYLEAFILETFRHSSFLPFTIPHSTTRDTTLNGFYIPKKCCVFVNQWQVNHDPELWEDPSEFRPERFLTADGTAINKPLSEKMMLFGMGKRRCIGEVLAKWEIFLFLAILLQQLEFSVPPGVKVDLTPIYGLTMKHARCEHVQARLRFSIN
# [13] = test system: AD mouse model; assay: Synaptic load, synaptophysin labeling of hippocampus; assay type: in vivo
# Protocol: FIG. 16 illustrates mechanistic confirmation studies for determination of synaptic load.
# Mechanistic confirmation studies for determination of synaptic load were performed using antibody-labeling of synaptophysin with a green fluorescent tag. […] The improvements in NLR and NOR may be correlated to the restoration of synaptic load, increases in sAPPα or the sAPPα/sAPPβ ratio; increases in the sAPPα/Aβ1-42 ratio; decreases in the p-tau/tau ratio, and/or decreases in APPneo (c-terminal cleavage).
# [14] = reported; cited from earlier work
# [15] = Solubility in water
# [16] = dog, microsomes, NADPH-Dependent CLint
# [17] = dog, microsomes, NADPH-Free CLint
# [18] = rat, microsomes, NADPH-Dependent CLint
# [19] = rat, microsomes, NADPH-Free CLint
# [20] = midazolam, read-out: CYP3A4 midazolam inhibition
# [21] = testosterone, read-out: CYP3A4 testosterone inhibition
# Chain of CYP3A4 (P08684 whole entry): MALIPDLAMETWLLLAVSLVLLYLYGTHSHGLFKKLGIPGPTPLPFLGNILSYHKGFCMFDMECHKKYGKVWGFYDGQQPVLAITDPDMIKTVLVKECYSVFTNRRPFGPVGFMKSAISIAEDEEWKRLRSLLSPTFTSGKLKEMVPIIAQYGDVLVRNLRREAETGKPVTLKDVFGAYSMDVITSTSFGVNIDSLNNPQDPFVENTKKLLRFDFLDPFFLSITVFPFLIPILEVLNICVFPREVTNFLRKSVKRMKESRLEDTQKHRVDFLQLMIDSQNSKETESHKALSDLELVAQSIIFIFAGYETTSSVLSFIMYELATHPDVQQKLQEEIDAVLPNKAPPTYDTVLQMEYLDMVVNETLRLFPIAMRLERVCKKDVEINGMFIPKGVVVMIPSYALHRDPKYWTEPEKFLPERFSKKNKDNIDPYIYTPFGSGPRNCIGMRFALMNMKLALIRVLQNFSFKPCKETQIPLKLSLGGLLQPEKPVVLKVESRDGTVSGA
# Chain of CYP2C9 (P11712 whole entry): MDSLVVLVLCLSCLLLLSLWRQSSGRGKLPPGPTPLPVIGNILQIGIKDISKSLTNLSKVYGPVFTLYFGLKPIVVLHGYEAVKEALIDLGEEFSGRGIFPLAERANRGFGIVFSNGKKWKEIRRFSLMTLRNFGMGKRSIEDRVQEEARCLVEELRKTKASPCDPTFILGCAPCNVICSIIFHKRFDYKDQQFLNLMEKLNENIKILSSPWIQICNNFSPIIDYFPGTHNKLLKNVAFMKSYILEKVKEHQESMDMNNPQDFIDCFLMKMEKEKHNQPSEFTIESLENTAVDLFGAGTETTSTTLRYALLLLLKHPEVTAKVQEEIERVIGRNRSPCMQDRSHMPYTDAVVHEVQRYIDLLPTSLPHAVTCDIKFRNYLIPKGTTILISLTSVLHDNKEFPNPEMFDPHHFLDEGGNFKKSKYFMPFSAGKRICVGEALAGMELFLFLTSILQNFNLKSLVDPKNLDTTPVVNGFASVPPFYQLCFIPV
# Chain of CYP2C19 (P33261 whole entry): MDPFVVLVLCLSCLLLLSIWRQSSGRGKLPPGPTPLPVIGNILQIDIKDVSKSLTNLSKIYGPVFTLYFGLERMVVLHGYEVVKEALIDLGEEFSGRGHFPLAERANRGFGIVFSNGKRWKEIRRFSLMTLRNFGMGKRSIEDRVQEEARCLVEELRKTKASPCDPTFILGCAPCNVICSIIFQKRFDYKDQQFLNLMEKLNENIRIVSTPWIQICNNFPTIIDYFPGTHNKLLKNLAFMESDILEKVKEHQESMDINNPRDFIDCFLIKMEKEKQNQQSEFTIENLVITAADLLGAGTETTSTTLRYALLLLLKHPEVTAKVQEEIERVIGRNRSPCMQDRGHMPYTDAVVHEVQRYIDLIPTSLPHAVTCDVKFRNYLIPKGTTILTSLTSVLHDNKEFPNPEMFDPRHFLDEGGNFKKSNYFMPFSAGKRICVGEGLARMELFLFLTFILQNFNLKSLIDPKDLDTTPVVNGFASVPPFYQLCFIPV
# Chain of CYP2D6 (P10635 whole entry): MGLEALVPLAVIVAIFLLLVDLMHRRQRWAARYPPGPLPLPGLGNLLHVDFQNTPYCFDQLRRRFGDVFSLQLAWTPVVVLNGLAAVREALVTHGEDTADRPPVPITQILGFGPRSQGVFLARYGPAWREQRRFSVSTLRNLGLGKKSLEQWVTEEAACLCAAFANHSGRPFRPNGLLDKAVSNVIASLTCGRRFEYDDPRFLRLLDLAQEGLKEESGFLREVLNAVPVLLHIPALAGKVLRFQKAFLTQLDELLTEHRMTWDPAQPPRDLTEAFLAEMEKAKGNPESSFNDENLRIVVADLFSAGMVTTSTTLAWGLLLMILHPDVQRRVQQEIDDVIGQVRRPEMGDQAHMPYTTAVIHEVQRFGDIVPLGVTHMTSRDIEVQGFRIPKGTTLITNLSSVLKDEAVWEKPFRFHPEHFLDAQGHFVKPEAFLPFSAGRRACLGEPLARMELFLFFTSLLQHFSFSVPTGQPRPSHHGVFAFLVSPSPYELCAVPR
# Chain of APP (P05067 18-770, species assumed): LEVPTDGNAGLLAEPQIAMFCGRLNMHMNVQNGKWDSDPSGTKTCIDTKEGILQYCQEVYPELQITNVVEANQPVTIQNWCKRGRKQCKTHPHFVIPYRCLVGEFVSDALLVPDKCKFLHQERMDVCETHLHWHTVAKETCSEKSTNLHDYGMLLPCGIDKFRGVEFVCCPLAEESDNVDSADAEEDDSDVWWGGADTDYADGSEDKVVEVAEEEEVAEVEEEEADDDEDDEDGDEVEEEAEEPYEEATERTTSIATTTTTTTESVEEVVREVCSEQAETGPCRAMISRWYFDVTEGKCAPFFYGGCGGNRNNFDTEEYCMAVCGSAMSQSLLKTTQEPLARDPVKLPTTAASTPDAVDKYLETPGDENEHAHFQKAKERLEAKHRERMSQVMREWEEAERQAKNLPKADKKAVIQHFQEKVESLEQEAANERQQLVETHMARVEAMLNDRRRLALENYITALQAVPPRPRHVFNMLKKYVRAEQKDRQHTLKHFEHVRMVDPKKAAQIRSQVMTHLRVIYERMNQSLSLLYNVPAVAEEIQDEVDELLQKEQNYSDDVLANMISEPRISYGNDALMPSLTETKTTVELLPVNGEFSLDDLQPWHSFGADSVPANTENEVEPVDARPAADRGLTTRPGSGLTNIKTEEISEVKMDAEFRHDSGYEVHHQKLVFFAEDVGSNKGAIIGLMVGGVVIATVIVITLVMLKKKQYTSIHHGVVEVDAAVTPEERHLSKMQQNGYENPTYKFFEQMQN
# Chain of α7 (P36544 23-502): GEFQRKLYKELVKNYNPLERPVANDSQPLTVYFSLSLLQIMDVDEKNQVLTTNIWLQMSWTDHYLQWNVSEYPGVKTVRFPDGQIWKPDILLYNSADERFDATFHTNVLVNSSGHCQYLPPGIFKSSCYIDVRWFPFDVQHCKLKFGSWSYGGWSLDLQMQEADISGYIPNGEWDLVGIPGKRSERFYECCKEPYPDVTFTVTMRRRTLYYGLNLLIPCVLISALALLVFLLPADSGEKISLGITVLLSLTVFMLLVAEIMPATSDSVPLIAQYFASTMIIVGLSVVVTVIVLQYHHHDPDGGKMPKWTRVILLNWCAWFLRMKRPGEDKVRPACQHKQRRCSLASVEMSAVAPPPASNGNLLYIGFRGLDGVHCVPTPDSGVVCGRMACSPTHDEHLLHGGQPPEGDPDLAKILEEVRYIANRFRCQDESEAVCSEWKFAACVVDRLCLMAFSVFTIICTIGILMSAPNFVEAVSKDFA
smiles,measurement,setting,value
"CN1C2CC[C@H]1C[C@@H](OC(=O)c1c[nH]c3cc(F)ccc13)C2.Cl [C41 HCl, (1R,3R,5S)-8-methyl-8-azabicyclo[3.2.1]octan-3-yl 6-fluoro-1H-indole-3-carboxylate hydrochloride]",effect on sAPPα in SH-SY5Y cells,"[1]; 1 μm, 24 hours",increase sAPPα similar to C41 (first batch) and to F03
"CN1[C@@H]2CC[C@H]1C[C@@H](OC(=O)c1c[nH]c3ccccc13)C2 [Compound F03, tropisetron, reference compound]",Target α7,[2],450 nM
same,Target 5-HT3,[3],3 nM
same,Target APP,[4],1 to 10 µM
same,Primary Screen (SH-SY5Y) sAPPα,[1]; ↑ increase,↑>10%
same,Secondary Screen (CHO-7W) sAPPα,[5]; ↑ increase,↑>10%
same,Secondary Screen (CHO-7W) sAppα/Aβ,[5]; ↑ increase of ratio,↑>30%
same,Secondary Screen (CHO-7W) Aβ1-42,[5]; ↓ decrease,↓>10%
same,Aβ40/42 ratio in vivo,[6],not changed
same,sAPPα in vivo,[6],increased significantly
same,sAPPα/Aβ1-42 ratio in vivo,[6],not increased
same,microsomal CLint at 1 μM,[7]; [16],43.5 µL/min/mg
same,half-life at 1 μM,"[7]; dog, microsomes, NADPH-Dependent T1/2",0.885 h
same,microsomal CLint at 1 μM,[7]; [17],< 9.6 µL/min/mg
same,half-life at 1 μM,"[7]; dog, microsomes, NADPH-Free T1/2",> 4 h
same,half-life at 1 μM,"[7]; human, microsomes",> 4 h
same,microsomal CLint at 1 μM,"[7]; human, microsomes",< 9.6 µL/min/mg
same,NADPH-Free CLint,"[7]; human, microsomes, 1 μM",<9.6 µL/min/mg
same,NADPH-Free T1/2,"[7]; human, microsomes, 1 μM",>4 h
same,microsomal CLint at 1 μM,[7]; [18],367 µL/min/mg
same,half-life at 1 μM,"[7]; rat, microsomes, NADPH-Dependent T1/2",0.105 h
same,microsomal CLint at 1 μM,[7]; [19],< 9.6 µL/min/mg
same,half-life at 1 μM,"[7]; rat, microsomes, NADPH-Free T1/2",> 4 h
same,inhibition at 10 µM,[8]; [20],0%
same,inhibition at 10 µM,[8]; [21],0.63%
same,inhibition at 30 µM,[8]; [20],6.6%
same,inhibition at 30 µM,[8]; [21],10.5%
same,inhibition at 10 µM,[9]; 10 μM,15.9%
same,inhibition at 30 µM,[9]; 30 μM,23.3%
same,inhibition at 10 µM,[10]; 10 μM,17.4%
same,inhibition at 30 µM,[10]; 30 μM,38%
same,inhibition at 10 µM,[11]; 10 μM,6.4%
same,inhibition at 30 µM,[11]; 30 μM,0%
same,inhibition at 10 µM,[12]; 10 μM,1%
same,inhibition at 30 µM,[12]; 30 μM,1%
same,synaptic load / synaptic density in hippocampus,[13],restore synaptic density; also recorded: restored synaptic load
same,Plasma binding,[14],70%
same,solubility,[15],100 mM
CC(=O)CC(c1ccccc1)c1c(O)c2ccccc2oc1=O (centres unmarked) [warfarin],microsomal CLint at 1 μM,[7]; [16],< 9.6 µL/min/mg
same,microsomal CLint at 1 μM,[7]; [17],< 9.6 µL/min/mg
same,recovery,[7]; human,99.7%
same,microsomal CLint at 1 μM,"[7]; human, microsomes",< 9.6 µL/min/mg
same,NADPH-Free CLint,"[7]; human, microsomes, 1 μM",<9.6 µL/min/mg
same,microsomal CLint at 1 μM,[7]; [18],< 9.6 µL/min/mg
same,microsomal CLint at 1 μM,[7]; [19],< 9.6 µL/min/mg
"CC(C)NCC(O)COc1cccc2ccccc12 (centres unmarked) [propranolol, reference compound]",Mean Plasma Fraction Bound,"[7]; human, plasma",81.6%
same,fraction unbound,"[7]; human, plasma",0.184
